Values of other authors in PMC9516332 (Frontiers in Oncology, 2022).

Legend:
[1] = target: panel of 255 wild-type kinases (Homo sapiens, UniProt P51957); settings: NEK4; 1 µmol/L single concentration; ref DOI: 10.1371/journal.pone.0092146; cited from earlier work
[2] = target: T1, panel of 255 wild-type kinases (Homo sapiens, UniProt Q9NRA0); settings: kinase SPHK2; 1 µmol/L single concentration; ref DOI: 10.1371/journal.pone.0092146; cited from earlier work
T1 sequence (Q9NRA0 1-654): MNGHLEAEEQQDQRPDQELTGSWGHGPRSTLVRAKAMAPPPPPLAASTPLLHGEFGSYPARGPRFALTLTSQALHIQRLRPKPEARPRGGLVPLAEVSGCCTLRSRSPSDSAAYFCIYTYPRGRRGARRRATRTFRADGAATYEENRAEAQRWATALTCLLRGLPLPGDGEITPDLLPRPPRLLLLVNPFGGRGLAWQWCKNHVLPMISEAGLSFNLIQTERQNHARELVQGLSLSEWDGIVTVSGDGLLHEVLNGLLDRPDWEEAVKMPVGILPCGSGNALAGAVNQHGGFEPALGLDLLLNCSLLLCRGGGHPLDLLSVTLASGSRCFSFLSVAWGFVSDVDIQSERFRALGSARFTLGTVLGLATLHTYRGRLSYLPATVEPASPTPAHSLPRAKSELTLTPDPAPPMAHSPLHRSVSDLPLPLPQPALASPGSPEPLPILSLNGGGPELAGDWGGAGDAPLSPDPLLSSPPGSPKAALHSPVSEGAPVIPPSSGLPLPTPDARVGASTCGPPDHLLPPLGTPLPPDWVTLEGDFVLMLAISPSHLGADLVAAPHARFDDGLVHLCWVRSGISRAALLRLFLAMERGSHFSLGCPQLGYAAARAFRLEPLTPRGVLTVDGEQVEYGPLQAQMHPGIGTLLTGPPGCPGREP

[3] = target: T2, panel of 255 wild-type kinases (Homo sapiens, UniProt O15530); settings: kinase PDK1; 1 µmol/L single concentration; ref DOI: 10.1371/journal.pone.0092146; cited from earlier work
T2 sequence (O15530 1-556): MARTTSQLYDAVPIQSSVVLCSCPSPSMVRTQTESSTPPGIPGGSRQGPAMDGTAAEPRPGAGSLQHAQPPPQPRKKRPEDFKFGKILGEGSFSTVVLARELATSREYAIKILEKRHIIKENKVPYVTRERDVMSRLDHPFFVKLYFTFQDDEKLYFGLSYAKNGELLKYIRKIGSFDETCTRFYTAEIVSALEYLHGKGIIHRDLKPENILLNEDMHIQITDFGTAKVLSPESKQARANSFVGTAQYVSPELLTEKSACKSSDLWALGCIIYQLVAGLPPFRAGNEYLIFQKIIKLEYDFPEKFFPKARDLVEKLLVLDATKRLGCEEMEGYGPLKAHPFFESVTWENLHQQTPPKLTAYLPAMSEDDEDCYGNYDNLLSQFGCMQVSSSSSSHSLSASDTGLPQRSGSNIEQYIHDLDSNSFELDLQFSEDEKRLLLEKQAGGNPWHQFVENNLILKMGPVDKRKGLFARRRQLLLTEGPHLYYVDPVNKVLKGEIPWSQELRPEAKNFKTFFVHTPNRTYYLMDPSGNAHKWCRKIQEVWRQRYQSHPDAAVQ

[4] = target: panel of 255 wild-type kinases (Homo sapiens, UniProt Q07912); settings: ACK kinase assay; 1 µmol/L single concentration; ref DOI: 10.1371/journal.pone.0092146; cited from earlier work
[5] = target: T3, panel of 255 wild-type kinases (Homo sapiens, UniProt O14920); settings: kinase IKKβ; 1 µmol/L single concentration; ref DOI: 10.1371/journal.pone.0092146; cited from earlier work
T3 sequence (O14920 1-756): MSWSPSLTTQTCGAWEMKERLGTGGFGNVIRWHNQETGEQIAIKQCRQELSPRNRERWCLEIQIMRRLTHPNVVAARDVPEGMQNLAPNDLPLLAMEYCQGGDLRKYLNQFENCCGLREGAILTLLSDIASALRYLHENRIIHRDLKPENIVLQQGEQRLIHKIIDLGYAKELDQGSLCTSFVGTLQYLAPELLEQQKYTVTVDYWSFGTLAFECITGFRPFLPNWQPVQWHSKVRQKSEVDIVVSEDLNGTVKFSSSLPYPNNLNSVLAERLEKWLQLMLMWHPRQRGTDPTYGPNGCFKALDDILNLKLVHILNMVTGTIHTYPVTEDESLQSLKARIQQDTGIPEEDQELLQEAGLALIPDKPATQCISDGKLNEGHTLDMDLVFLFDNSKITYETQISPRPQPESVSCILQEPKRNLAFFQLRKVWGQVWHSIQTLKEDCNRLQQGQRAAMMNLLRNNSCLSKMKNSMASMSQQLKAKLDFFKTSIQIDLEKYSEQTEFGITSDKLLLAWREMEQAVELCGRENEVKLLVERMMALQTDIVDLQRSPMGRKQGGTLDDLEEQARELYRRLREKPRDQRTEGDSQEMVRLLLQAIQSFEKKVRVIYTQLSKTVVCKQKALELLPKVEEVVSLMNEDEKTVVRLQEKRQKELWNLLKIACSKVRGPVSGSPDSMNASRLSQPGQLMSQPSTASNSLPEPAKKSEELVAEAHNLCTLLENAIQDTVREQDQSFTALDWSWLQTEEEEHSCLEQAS

[6] = target: panel of 255 wild-type kinases (Homo sapiens, UniProt P23458); settings: kinase JAK1; 1 µmol/L single concentration; ref DOI: 10.1371/journal.pone.0092146; cited from earlier work
[7] = target: panel of 255 wild-type kinases (Homo sapiens, UniProt Q8N568); settings: kinase DCAMKL2; 1 µmol/L single concentration; ref DOI: 10.1371/journal.pone.0092146; cited from earlier work
[8] = target: panel of 255 wild-type kinases (Homo sapiens, UniProt Q9P1W9); settings: kinase PIM2; 1 µmol/L single concentration; ref DOI: 10.1371/journal.pone.0092146; cited from earlier work
[9] = target: panel of 255 wild-type kinases (Homo sapiens, UniProt Q9UKE5); settings: kinase TNIK; 1 µmol/L single concentration; ref DOI: 10.1371/journal.pone.0092146; cited from earlier work

Row | SMILES | %-inhibition, NEK4 [1] [%] | %-inhibition at 1 µmol/L, SPHK2 [2] [%] | %-inhibition at 1 µmol/L, PDK1 [3] [%] | %-inhibition ACK [4] [%] | %-inhibition at 1 µmol/L, IKKβ [5] [%] | %-inhibition at 1 µmol/L, JAK1 [6] [%] | %-inhibition at 1 µmol/L, DCAMKL2 [7] [%] | %-inhibition at 1 µmol/L, PIM2 [8] [%] | %-inhibition at 1 µmol/L, TNIK [9] [%]
1 | CC(=O)Nc1cccc(-n2c(=O)n(C3CC3)c(=O)c3c(Nc4ccc(I)cc4F)n(C)c(=O)c(C)c32)c1 [trametinib] | 2 | -14 | -5.52 | -5.39 | 0.741 | -1.83 | -2.4 | -4 | 3
2 | CCCS(=O)(=O)Nc1ccc(F)c(C(=O)c2c[nH]c3ncc(-c4ccc(Cl)cc4)cc23)c1F [vemurafenib] | -0.416 | 8 | -4 | 40 | -3.31 | 46 | -3.52 | -2 | 33
